Data as given in patent US20170210751A1, “PRMT5 INHIBITORS AND USES THEREOF” (Epizyme, Inc., priority 2014, published 2017).

System: Symmetric di-Methyl Arginine in Z-138 cells
Test: Z-138 Methylation Assay (In Cell Western for symmetric di-methyl arginine)
Format: cell-based
Conditions: Homo sapiens, 96 hours incubation, symmetric di-methyl arginine normalised to DNA content, read-out: ICW EC50
Summary of the method: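 Z-138 cells were treated with compound for 96 h at 37 °C, then fixed on poly-D-lysine plates. Symmetric di-methyl arginine was detected by In-Cell Western (800 nm) with DRAQ5 DNA normalisation (700 nm). Percent inhibition used DMSO and 3 μM reference-compound controls; IC50 curves came from triplicate wells.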

Structure (SMILES) | EC50 [nM]
CC(=O)N1CCC(Nc2cc(C(=O)NC[C@H](O)CN3CCc4ncccc4C3)ncn2)CC1 [Compound 2-14, (S)-6-((1-acetylpiperidin-4-yl)amino)-N-(3-(7,8-dihydro-1,6-naphthyridin-6(5H)-yl)-2-hydroxypropyl)pyrimidine-4-carboxamide] | 101 to 1000
Cc1nc2c([nH]1)CCN(C[C@@H](O)CNC(=O)c1cc(NC3COC3)ncn1)C2 [Compound 3-41] | > 1000
CC(=O)N1CCC(Nc2cc(C(=O)NC[C@H](O)CN3CCc4nc(C)[nH]c4C3)ccn2)CC1 [Compound 3-54] | > 1000
CC(=O)N1CC(Nc2cc(C(=O)NC[C@H](O)CN3CCc4c(ncn4C)C3)ncn2)C1 [Compound 3-45] | > 1000
CC(=O)N1CC(Nc2cc(C(=O)NC[C@H](O)CN3CCCc4c3cnn4C)ncn2)C1 [Compound 3-46] | > 1000
CC(=O)N1CC(Nc2cc(C(=O)NC[C@H](O)CN3CCc4ncccc4C3)ncn2)C1 [Compound 2-9, (S)-6-((1-acetylazetidin-3-yl)amino)-N-(3-(7,8-dihydro-1,6-naphthyridin-6(5H)-yl)-2-hydroxypropyl)pyrimidine-4-carboxamide] | 101 to 1000
CC(=O)N1CC(Nc2cc(C(=O)NC[C@H](O)CN3CCc4cnccc4C3)ncn2)C1 [Compound 2-16] | > 1000
CC(=O)N1CCC(Nc2cc(C(=O)NC[C@H](O)CN3CCc4ccncc4C3)ccn2)CC1 [Compound 2-19, (S)-2-((1-acetylpiperidin-4-yl)amino)-N-(3-(3,4-dihydro-2,7-naphthyridin-2(1H)-yl)-2-hydroxypropyl)isonicotinamide] | > 1000
CC(=O)N1CCC(Nc2cc(C(=O)NC[C@H](O)CN3CCc4c(ncn4C)C3)ncn2)CC1 [Compound 3-35, (S)-6-((1-acetylpiperidin-4-yl)amino)-N-(2-hydroxy-3-(1-methyl-6,7-dihydro-1H-imidazo[4,5-c]pyridin-5(4H)-yl)propyl)pyrimidine-4-carboxamide] | > 1000
CC(=O)N1CCC(Nc2cc(C(=O)NC[C@H](O)CN3CCc4nc(C)sc4C3)ncn2)CC1 [Compound 1-7, (S)-6-((1-acetylpiperidin-4-yl)amino)-N-(2-hydroxy-3-(2-methyl-6,7-dihydrothiazolo[5,4-c]pyridin-5(4H)-yl)propyl)pyrimidine-4-carboxamide] | > 1000
CC(=O)N1CC(Nc2cc(C(=O)NC[C@H](O)CN3CCc4ccncc4C3)ncn2)C1 [Compound 2-22] | > 1000
CC(=O)N1CCC(Nc2cc(C(=O)NC[C@H](O)CN3CCc4cccnc4C3)ncn2)CC1 [Compound 2-11, (S)-6-((1-acetylpiperidin-4-yl)amino)-N-(3-(5,6-dihydro-1,7-naphthyridin-7(8H)-yl)-2-hydroxypropyl)pyrimidine-4-carboxamide] | 101 to 1000
CC(=O)N1CCC(Nc2cc(C(=O)NC[C@H](O)CN3CCc4ccncc4C3)ncn2)CC1 [Compound 2-23, (S)-6-((1-acetylpiperidin-4-yl)amino)-N-(3-(3,4-dihydro-2,7-naphthyridin-2(1H)-yl)-2-hydroxypropyl)pyrimidine-4-carboxamide] | > 1000
CC(=O)N1CCC(Nc2cc(C(=O)NC[C@H](O)CN3CCc4ncsc4C3)ccn2)CC1 [Compound 1-19, (S)-2-((1-acetylpiperidin-4-yl)amino)-N-(3-(6,7-dihydrothiazolo[5,4-c]pyridin-5(4H)-yl)-2-hydroxypropyl)isonicotinamide] | > 1000
